Reference: article PMC8714961, “Involvement of P-gp on Reversing Multidrug Resistance Effects of 23-Hydroxybetulinic Acid on Chemotherapeutic Agents” (Frontiers in Pharmacology, 2021)
Read-outs that look alike come from different tables or passages of the source. Marks after values point to notes of the source that are not given here.

Tests used:
[1] = molecular target: T1, P-gp (Homo sapiens, UniProt P08183); assay: MDR1 shift assay (UIC2 binding); type: cell-based; parameters: endogenous in cells; host or cells: MCF-7/ADR; settings: 25 µM, MCF-7/ADR cells, vs solvent control
Experimental: The monoclonal antibody UIC2 (2.5 μl) was added and incubated for 15 min, then 1 ml of cold binding buffer was used to terminate reaction. The cells were rinsed twice, followed by adding cold phycoerythrin-labeled anti-mouse IgG (250 μl) for another 15 min in the dark. Finally, cells were rinsed and incubated in cold binding buffer (250 μl) and further evaluated by flow cytometer (Cytomics FC 500; Beckman Coulter, Fullerton, CA). In this study, vincristine (25 µM) was set as positive control.

[2] = tested on: MCF-7/ADR cells; assay: ADR/VCR accumulation study in MCF-7/ADR cells; settings: ADR/VCR 5 µM, test compound 0.2, 2, 20 µM, 1 h
Experimental: (§5) MCF-7 cells (1×10^5/Well) were incubated in 24-well plates. […] After 1 h incubation, the compound solution was aspirated to stop further accumulation, and the monolayers were rinsed with cold Hank’s solution for three times. The drug content was detected by lysing the cells with ultrasound, and then the single well lysate was transferred to a plastic EP tube for further analysis. The protein concentration of the cells was measured using Coomassie brilliant blue.

[3] = tested on: MDCK-MDR1 cell monolayers; assay: MDCK-MDR1 transport of BA/23-HBA with or without verapamil; settings: for Folds (RE): +VER (verapamil 20 µM) vs without VER
Experimental: Briefly, MDCK-MDR1 cells (1×10^5/Well) were seeded onto […] pore-size transwell inserts (Millipore, MA, United States) in 24-well plates. Cells were cultured for 5–7 days, when the transepithelial electrical resistance (TEER) values were 120–240 Ω cm^2.
(§1) The cells were rinsed with warmed Hank’s balanced salt solution (HBSS), and the inserts were incubated for 20 min at 37°C. […] Aliquots (50 µl) were taken from the receiver compartment at intervals of 30, 60, 90, and 120 min and replaced with fresh buffer. In the study, verapamil (VER), known P-gp inhibitor, was selected as positive control.
(§2) The apparent permeability values (Papp) were evaluated in all experiments according to the following equation: Papp=dQ/dt/AC0 (1) where A means the insert area and C0 represents the initial concentration. dQ/dt represents the slope of the cumulative content transported during the time course of the period studied.
The efflux ratio (ER) was detected according to the ratio of Papp as the following equation: ER=Papp(B−A)/Papp(A−B) (2)

[4] = tested on: MCF-7/ADR cells; assay: Hoechst assay (apoptosis); type: cell-based, human; settings: for Number of apoptosis cells, single agent: vs control group
Experimental: MCF-7/ADR cells were collected and cultured at the density of 2.0 × 10^5/well in 24-well plates. […] The cells were dyed with Hoechst 33,342 (Beyotime, Shanghai, China) in the dark at 37°C for 30 min after washing with phosphate buffered saline (PBS). The morphological changes of the nucleus were evaluated by a fluorescence microscope.

[5] = molecular target: T1, P-gp; settings: for Folds (RE) of digoxin: vs control
Experimental: Briefly, MDCK-MDR1 cells (1×10^5/Well) were seeded onto 0.4 mm pore-size transwell inserts (Millipore, MA, United States) in 24-well plates.

[6] = tested on: MCF-7/S cells; assay: ADR/VCR accumulation study in MCF-7/S cells; settings: ADR/VCR 5 µM, test compound 0.2, 2, 20 µM, 1 h
Experimental: as §5

[7] = tested on: MCF-7/ADR cells; assay: Trypan blue exclusion assay, MCF-7/ADR cells; type: cell-based
Experimental: (§3) MCF-7 (human breast carcinoma cells) and MCF-7/ADR (P-gp-overexpressing derivative cells) cell lines were obtained from Blood Diseases Hospital, Chinese Academy of Medica ([Shi et al., 2011]). The cells were routinely maintained in RPMI 1640 with 10% heat-inactivated fetal bovine serum (FBS), 1% non-essential amino acid solution, 0.1 mg/ml streptomycin, and 100 units/ml penicillin. Caco-2 cells were purchased from American Type Culture Collection (ATCC, Rockville, MD, United States). Vector-MDCK and MDR1-MDCK cells were purchased from PharmaResources Co., Ltd. (China). Both Caco-2 and MDCK cells were maintained at Dulbecco’s modified Eagle’s medium (DMEM) with 10% FBS, 1% non-essential amino acid solution, 0.1 mg/ml streptomycin, and 100 units/ml penicillin. MCF-7/ADR cells were treated with […] and were cultured in ADR-free medium for more than 14 days before the experiment. All cells were cultured at 37°C in a humidified atmosphere of 5% CO2.
(§4) Trypan blue exclusion assay was used to measure the viability of cells to compounds. Briefly, MCF-7/sensitive (MCF-7/S) and MCF-7/ADR cells were diluted into the density of 0.5×10^4 cells/ml, then cells (1 ml) were seeded in culture plates. […]. The viable and dead cells (stained in blue) were counted by haemacytometer.

[8] = molecular target: T1, P-gp; assay: MDCK-MDR1 transport study, inhibition of VCR transport; settings: for Folds (RE) of VCR: vs control
Experimental: Briefly, MDCK-MDR1 cells (1×10^5/Well) were seeded onto […] pore-size transwell inserts (Millipore, MA, United States) in 24-well plates.
as §1, §2

[9] = molecular target: T1, P-gp; assay: Caco-2 uptake study (digoxin, VCR)
Experimental: Briefly, the cells (1×10^5/Well) were cultured in 24-well plates, and culture medium was changed every other day. The uptake study was taken when the monolayers formed. […] After 2 h incubation, the drug solution was removed to terminate reaction, and the monolayers were washed three times with cold Hank’s solution. The other steps were taken according to the above process in Adriamycin/Vincristine Accumulation Study.

[10] = tested on: MCF-7/S cells; assay: Trypan blue exclusion assay, MCF-7/S cells; type: cell-based; settings: 0.2, 2 and 20 µM with ADR 0.08 µM or VCR 0.5 µM, 48 h
Experimental: as §3, §4

[11] = compound 0.2 µM, +VER (verapamil 20 µM)
[12] = compound 0.2 µM, without verapamil
[13] = compound 2 µM, +VER (verapamil 20 µM)
[14] = compound 2 µM, without verapamil
[15] = compound 20 µM, +VER (verapamil 20 µM)
[16] = compound 20 µM, without verapamil
[17] = digoxin 5 µM with test compound 0.2 µM
[18] = digoxin 5 µM with test compound 2 µM
[19] = digoxin 5 µM with test compound 20 µM

T1 sequence (P08183 whole entry): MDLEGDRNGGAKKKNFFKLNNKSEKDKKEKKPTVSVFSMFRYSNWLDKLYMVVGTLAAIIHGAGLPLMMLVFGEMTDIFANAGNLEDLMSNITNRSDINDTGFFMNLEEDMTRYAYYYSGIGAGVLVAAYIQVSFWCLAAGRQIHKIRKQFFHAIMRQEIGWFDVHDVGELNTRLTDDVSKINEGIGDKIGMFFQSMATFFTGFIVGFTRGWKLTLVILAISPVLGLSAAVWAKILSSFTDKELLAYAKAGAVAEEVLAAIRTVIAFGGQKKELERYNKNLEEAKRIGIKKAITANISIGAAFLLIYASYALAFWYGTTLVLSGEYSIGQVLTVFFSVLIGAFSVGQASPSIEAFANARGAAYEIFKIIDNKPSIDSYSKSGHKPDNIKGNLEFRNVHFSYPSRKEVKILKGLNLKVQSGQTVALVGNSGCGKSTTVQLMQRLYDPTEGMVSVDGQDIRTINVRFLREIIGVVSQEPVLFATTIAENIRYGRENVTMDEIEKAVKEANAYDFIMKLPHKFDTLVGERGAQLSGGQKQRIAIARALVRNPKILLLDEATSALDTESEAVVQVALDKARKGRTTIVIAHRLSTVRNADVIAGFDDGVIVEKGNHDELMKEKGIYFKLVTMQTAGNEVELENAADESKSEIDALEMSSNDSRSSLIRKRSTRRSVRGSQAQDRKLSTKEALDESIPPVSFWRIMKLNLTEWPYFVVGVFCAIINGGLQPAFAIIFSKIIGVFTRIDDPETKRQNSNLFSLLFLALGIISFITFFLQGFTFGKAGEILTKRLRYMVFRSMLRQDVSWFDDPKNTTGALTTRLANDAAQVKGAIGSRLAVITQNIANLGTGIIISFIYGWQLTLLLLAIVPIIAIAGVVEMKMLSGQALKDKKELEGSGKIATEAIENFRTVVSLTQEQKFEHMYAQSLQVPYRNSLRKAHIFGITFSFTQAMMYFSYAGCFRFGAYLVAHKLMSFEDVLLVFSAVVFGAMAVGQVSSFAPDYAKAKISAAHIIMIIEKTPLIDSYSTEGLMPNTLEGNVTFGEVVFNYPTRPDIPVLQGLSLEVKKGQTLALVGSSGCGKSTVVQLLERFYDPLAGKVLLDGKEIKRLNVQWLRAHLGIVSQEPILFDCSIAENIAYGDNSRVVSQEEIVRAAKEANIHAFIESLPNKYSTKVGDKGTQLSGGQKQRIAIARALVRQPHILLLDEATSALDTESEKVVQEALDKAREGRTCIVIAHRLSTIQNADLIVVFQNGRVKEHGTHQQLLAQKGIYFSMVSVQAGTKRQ

For C=C(C)[C@@H]1CC[C@]2(C(=O)O)CC[C@]3(C)[C@H](CC[C@@H]4[C@@]5(C)CC[C@H](O)[C@@](C)(CO)[C@@H]5CC[C@]43C)[C@@H]12 [23-HBA, 23-hydroxybetulinic acid], which “Fluorescence intensity of UIC2 binding (MDR1 shift)” value [1] is on record?
Its value is “fluorescence intensity showed slight increase”.

And the “Intracellular accumulation of ADR/VCR in resistant MCF-7 cells” value [2]?
The value was “obviously increased”.

And the ER values ([3]; MDCK-MDR1 cells, all the concentrations (0.2–20 µM))?
The ER values was “less than 1.5”.

What about the “Papp A-B” value [3, 11] of the same molecule?
Its value is 8.49 ± 1.39 ×10^−6 cm s^−1.

And the “Papp B-A” value [3, 11]?
The value was 5.20 ± 0.59 ×10^−6 cm s^−1.

What about the “RE (net efflux)” value [3, 11] of the same molecule?
The value was 0.61**.

And the “Folds (RE)” value ([3]; compound 0.2 µM)?
Its value is 0.41.

And the “Papp A-B” value [3, 12]?
The value was 6.73 ± 0.09 ×10^−6 cm s^−1.

What about the “Papp B-A” value [3, 12] of the same molecule?
Its value is 10.01 ± 1.38 ×10^−6 cm s^−1.

What about the “RE (net efflux)” value [3, 12] of the same molecule?
The value was 1.49.

And the “Papp A-B” value [3, 13]?
The value was 10.03 ± 3.22 ×10^−6 cm s^−1.

What about the “Papp B-A” value [3, 13] of the same molecule?
Its value is 7.83 ± 0.32 ×10^−6 cm s^−1.

And the “RE (net efflux)” value [3, 13]?
Its value is 0.78*.

And the “Folds (RE)” value ([3]; compound 2 µM)?
The value was 0.63.

What about the “Papp A-B” value [3, 14] of the same molecule?
The value was 7.07 ± 0.64 ×10^−6 cm s^−1.

What about the “Papp B-A” value [3, 14] of the same molecule?
The value was 8.75 ± 0.31 ×10^−6 cm s^−1.

And the “RE (net efflux)” value [3, 14]?
The value was 1.24.

And the “Papp A-B” value [3, 15]?
Its value is 12.76 ± 1.13 ×10^−6 cm s^−1.

And the “Papp B-A” value [3, 15]?
The value was 7.47 ± 1.64 ×10^−6 cm s^−1.

And the “RE (net efflux)” value [3, 15]?
Its value is 0.59.

And the “Folds (RE)” value ([3]; compound 20 µM)?
Its value is 0.82.

And the “Papp A-B” value [3, 16]?
The value was 5.95 ± 0.94 ×10^−6 cm s^−1.

And the “RE (net efflux)” value [3, 16]?
Its value is 0.72.

And the “Number of apoptosis cells, single agent” value ([4]; 20 µM alone)?
The value was “not obviously different with the control group”.

What about the “Apoptosis caused by ADR in combination exposure” value ([4]; 2 and 20 µM with ADR 3 µM) of the same molecule?
The value was “dose-dependent (2 and 20 μM) increase in the apoptosis caused by ADR”.

What about the “RE (net efflux) of digoxin” value [5, 17] of the same molecule?
The value was 31.57.

And the “Folds (RE) of digoxin” value [5, 17]?
The value was 1.16.

What about the “RE (net efflux) of digoxin” value [5, 18] of the same molecule?
The value was 27.96.

What about the “Folds (RE) of digoxin” value [5, 18] of the same molecule?
Its value is 1.31.

What about the “RE (net efflux) of digoxin” value [5, 19] of the same molecule?
The value was 2.69.

And the “Folds (RE) of digoxin” value [5, 19]?
Its value is 13.61.

And the “Accumulation of ADR/VCR in sensitive MCF-7 cells” value [6]?
Its value is “little impact was observed”.

What about the “Cytotoxicity of combination exposure with ADR to MCF-7/ADR” value ([7]; 0–20 µM with ADR 3 µM) of the same molecule?
Its value is “showed significant cytotoxicity to MCF-7/ADR”.

And the “Cell toxicity as a single agent” value ([7]; 0–20 µM, single agent)?
The value was “no cell toxicity was detected”.

And the “Effect on cytotoxicity of MCF-7/ADR cells to ADR or VCR” value ([7]; 0.2, 2 and 20 µM with ADR 3 µM or VCR 6 µM, 48 h)?
The value was “can increase cytotoxicity of MCF-7/ADR cells to ADR or VCR in concentration-dependent manner”.

And the “Papp A→B of VCR” value ([8]; VCR with test compound 0.2 µM)?
Its value is 0.69 ± 0.30 ×10^−6 cm s^−1.

What about the “Papp B→A of VCR” value ([8]; VCR with test compound 0.2 µM) of the same molecule?
Its value is 4.45 ± 1.12 ×10^−6 cm s^−1.

What about the “RE (net efflux) of VCR” value ([8]; VCR with test compound 0.2 µM) of the same molecule?
Its value is 6.41.

What about the “Folds (RE) of VCR” value ([8]; VCR with test compound 0.2 µM) of the same molecule?
Its value is 1.70.

What about the “Papp A→B of VCR” value ([8]; VCR with test compound 2 µM) of the same molecule?
Its value is 2.49 ± 0.59 ×10^−6 cm s^−1.

What about the “Papp B→A of VCR” value ([8]; VCR with test compound 2 µM) of the same molecule?
Its value is 0.39 ± 0.01 ×10^−6 cm s^−1.

And the “RE (net efflux) of VCR” value ([8]; VCR with test compound 2 µM)?
Its value is 0.16.

What about the “Folds (RE) of VCR” value ([8]; VCR with test compound 2 µM) of the same molecule?
The value was 70.15.

And the “Papp A→B of VCR” value ([8]; VCR with test compound 20 µM)?
Its value is 2.19 ± 1.74 ×10^−6 cm s^−1.

And the “Papp B→A of VCR” value ([8]; VCR with test compound 20 µM)?
Its value is 0.48 ± 0.08 ×10^−6 cm s^−1.

What about the “RE (net efflux) of VCR” value ([8]; VCR with test compound 20 µM) of the same molecule?
The value was 0.22.

What about the “Folds (RE) of VCR” value ([8]; VCR with test compound 20 µM) of the same molecule?
The value was 49.32.

And the “Inhibitory effect compared with verapamil (20 µM) in Caco-2 cells” value ([9]; 20 µM)?
The value was “higher than that of verapamil”.

And the “Effect on uptake of VCR and digoxin in Caco-2 cells (P-gp inhibition)” value ([9]; 0.2, 2 and 20 µM, 2 h)?
The value was “showed dose-dependent increase on the penetration of VCR and digoxin”.

And the “Effect on cytotoxicity of MCF-7/S cells to ADR or VCR” value [10]?
The value was “neither 23-HBA nor BA showed significant effects on cytotoxicity”.

How did the “Number of apoptosis cells, single agent” value ([4]; 3 µM alone) turn out when COc1cccc2c1C(=O)c1c(O)c3c(c(O)c1C2=O)C[C@@](O)(C(=O)CO)C[C@@H]3O[C@H]1C[C@H](N)[C@H](O)[C@H](C)O1 [ADR, Adriamycin, reference compound] was run?
The value was “not obviously different with the control group”.
